Experimental data from US6693132B2, “Methods for using alkanoyloxymethyl esters” (Beacon Laboratories, Inc., priority 2000, dated 2004).
pIC50: −log10 of the molar value.

How the values were obtained:
[1] = tested on: PC-3 prostate cancer cells; assay: EDR anti-proliferation assay (3H-thymidine incorporation, soft agar) against PC-3 prostate cancer cells; assay type: cell-based; conditions: Homo sapiens; PC-3 cells in soft agar, five days incubation, 3H-TdR incorporation
Text: The PC-3 cell line was maintained in RPMI supplemented with 10% fetal calf serum and antibiotics. […] Cells were suspended in 0.12% soft agar in complete medium and plated (2,000 cells per well, as determined by preliminary experiments) in different drug concentrations onto a 0.4% agarose underlayer in 24-well plates. Plating cells on agarose underlayers supports the proliferation only of the transformed cells, ensuring that the growth signal stems from the malignant component of the tumor.
All compounds were dissolved in DMSO to 200× stock solutions. Stock solutions were diluted to 20× working solutions using the tissue culture medium, serially diluted and added to the 24-well plates. […] No significant changes in pH of the culture medium were observed under the above conditions. Diluent control wells contained PC3 cells treated with DMSO, at the dilutions used for appropriate drug treatment. All experimental points were represented by two separate wells (duplicates). Positive controls were determined using at least two wells treated with an extremely high dose of cisplatin, an anti-cancer agent. Four wells containing tumor cells that were not treated with drugs served as negative controls in each experiment.
Cells were incubated with drugs under standard culture conditions for five days. Cultures were pulsed with tritiated thymidine (^3H-TdR, New Life Science Products, Boston, Mass.) at 5 μCi per well for the last 48 hours of the culture period. Cell culture plates were then heated to 90° C. to liquefy the agarose, and cells were harvested onto glass fiber filters, which were then placed into counting vials containing liquid scintillation fluid. The radioactivity trapped on the filters was counted with a Beckman scintillation counter. The fraction of surviving cells was determined by comparing ^3H-TdR incorporation in treated (experimental points) and untreated (negative control) wells. […] IC50 values were determined using the approximated sigmoidal curves and expressed as μM.

[2] = molecular target: histone deacetylase isolated from rat liver; assay: Histone deacetylase inhibition assay with fluorescent substrate MAL, HPLC determination; assay type: biochemical; conditions: 37° C. 90 minutes, IC50 from five dilutions, read-out: HDAC
Experimental: The inhibition of histone deacetylase was determined according to methods generally described by Hoffmann et al., Nucleic Acids Res. 27:2057-8 (1999). The histone deacetylase was isolated from rat liver as previously described by M. Tung. The compounds tested were initially dissolved in either ethanol or in DMSO to provide working stock solutions.
The assay was performed in a final volume of 120 μL total, consisting of 100 μL of 15 μM tris-HCl buffer (pH 7.9) also containing 0.25 μM EDTA, 10 μM NaCl, 10% glycerol, 10 μM mercaptoethanol and the enzyme. The assay was initiated upon the addition of 10 ml of one of the compounds being tested, followed by the addition of the fluorescence-labeled lysine substrate to each assay tube in an ice bath for 15 minutes. The tubes were transferred to a water bath at 37° C. for an additional 90 minutes.
The fluorescent substrate described by Hoffmann was modified to increase the precision and accuracy by the addition of an internal standard for the HPLC determination. The synthetic substrate, MAL is N-(4-methyl-7-coumarinyl)-N-α(tert-butyloxy-carbonyl)-N-Ω-acetyllysineamide.
An initial assay was performed to determine the range of activity of each compound. […] All values are the result of two or more experiments.

| Structure (SMILES) | pIC50 [1] | pIC50 [2] |
| --- | --- | --- |
| CCC(=O)OCOC(=O)CC [POMP, propionoyloxymethyl propionate] | 4.52 | 3.23 |
| CC(/C=C/C(=O)NO)=C\[C@@H](C)C(=O)c1ccc(N(C)C)cc1 [trichostatin] | 8.30 |  |
| CCCC(=O)O [butyric acid] | < 2.70 | 2.35 |
